Measurements as given in article doi:10.1101/2025.05.21.654962v1 (biorxiv, 2025).

Columns and labels:
[1] = target: T1, NgUPPS (undecaprenyl diphosphate synthase) (Neisseria gonorrhoeae, UniProt Q5F5X2); assay: crystal structure; type: binding
T1 sequence (Q5F5X2 1-248): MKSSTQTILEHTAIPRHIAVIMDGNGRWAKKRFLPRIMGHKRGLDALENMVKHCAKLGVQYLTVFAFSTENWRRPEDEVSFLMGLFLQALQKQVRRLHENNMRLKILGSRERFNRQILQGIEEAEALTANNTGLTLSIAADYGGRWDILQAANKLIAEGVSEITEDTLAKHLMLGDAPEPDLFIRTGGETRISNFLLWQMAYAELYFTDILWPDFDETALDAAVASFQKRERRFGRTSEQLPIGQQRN

[2] = target: T1, NgUPPS (undecaprenyl diphosphate synthase); assay: pyrophosphatase-coupled phosphate release, Biomol Green; type: biochemical

SMILES: Brc1ccsc1-c1ccn[nH]1 [4W-0801]
- crystal structure (soaking); WAC-MS hit ([1]; region 3 (hydrophobic core)): 9OIV (4W-0801)

SMILES: O=C(O)c1ccc(C(F)(F)F)cn1 [FC-0609]
- crystal structure (soaking); WAC-MS hit ([1]; region 4): 9OJA (FC-0609)

SMILES: Clc1ccc2nc(N3CCNCC3)sc2c1 [PS-0394]
- crystal structure (soaking); WAC-MS hit ([1]; region 3, code printed PS-0394 with the PDB id but PS-3094): 9OJB (PS-0394)

SMILES: NCc1cccc(O)c1 [PS-3756]
- crystal structure (soaking); WAC-MS hit ([1]; region 1): 9OHO (PS-3756)

SMILES: O=C(O)c1cn2cc(Cl)ccc2n1 [4R-0623]
- crystal structure (soaking); WAC-MS hit ([1]; region 1, two sites): 9OHJ (4R-0623)

SMILES: OCc1cccs1 [PS-5570]
- crystal structure (soaking); WAC-MS hit ([1]; region 1, two sites): 9OHG (PS-5570)

SMILES: O=C(O)c1ccc(Br)cn1 [5Br-P]
- crystal structure (soaking); WAC-MS hit ([1]; region 2): 9OJE (5Br-P)

SMILES: O=C(O)c1ncccc1F [GF-0701]
- crystal structure (soaking); WAC-MS hit ([1]; region 1, two sites): 9OIW (GF-0701)

SMILES: OCc1ccccc1Cl [PS-5485]
- crystal structure (soaking); WAC-MS hit ([1]; region 1): 9OHB (PS-5485)

SMILES: Nc1cc(-c2ccc(C(F)(F)F)cc2)no1 [DA-0854]
- crystal structure (soaking); WAC-MS hit ([1]; region 4 (distal end of tunnel)): 9OJ1 (DA-0854)

SMILES: O=C(Nc1cccc(Oc2ccc(C(=O)O)c(C(=O)O)c2)c1)c1ccc(-c2ccccc2)cc1 [compound 10, 4-{3-[(biphenyl-4-ylcarbonyl)amino]phenoxy}benzene-1,2-dicarboxylic acid]
- IC50 [2]: 3.4 µM

SMILES: Brc1ccc(-c2cc[nH]n2)s1 [PS-4845]
- crystal structure (soaking); WAC-MS hit ([1]; region 3): 9OI5 (PS-4845)

SMILES: Cc1ccc(O)c(-c2cc[nH]n2)c1 [BA-0843]
- crystal structure (soaking); WAC-MS hit ([1]; region 3): 9OHP (BA-0843)

SMILES: O=C(O)c1cc(C(F)(F)F)ccn1 [FD-0739]
- crystal structure (soaking); WAC-MS hit ([1]; region 2): 9OI6 (FD-0739)

SMILES: Cc1nonc1CO [PS-5549]
- crystal structure (soaking); WAC-MS hit ([1]; region 1, two sites): 9OHI (PS-5549)

SMILES: Nc1cc(-c2cccc(C(F)(F)F)c2)no1 [DA-0841]
- crystal structure (soaking); WAC-MS hit ([1]; region 2): 9OIY (DA-0841)
